Assay results as given in ChEMBL document CHEMBL1201862, “PubChem BioAssay data set” (2004).
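The compound was tested at five concentrations on cells cultured in 96-well plates, with a 48-hour exposure period. The concentration for 50% growth inhibition is given as GI50.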 Calls of active or inactive are those of the source. Rule as the data show it: active = GI50 up to about 1.1 µM and inactive = higher.

How the values were obtained:
Assay in all cases: growth of human tumour cells (NCI), 48 h
CAKI-1 = system: CAKI-1
OVCAR-4 = system: OVCAR-4
OVCAR-3 = system: OVCAR-3
M14 = system: M14
SW-620 = system: SW-620
MOLT-4 = system: MOLT-4
SF-295 = system: SF-295
UO-31 = system: UO-31
HCC 2998 = system: HCC 2998
MDA-MB-435 = system: MDA-MB-435
UACC-62 = system: UACC-62
RPMI-8226 = system: RPMI-8226
MDA-MB-231 = system: MDA-MB-231
BT-549 = system: BT-549
SK-MEL-5 = system: SK-MEL-5
SNB-19 = system: SNB-19
U-251 = system: U-251
A549 = system: A549
LOX IMVI = system: LOX IMVI
SK-MEL-28 = system: SK-MEL-28
RXF 393 = system: RXF 393
K562 = system: K562
TK-10 = system: TK-10
IGROV-1 = system: IGROV-1
SF-539 = system: SF-539
HOP-62 = system: HOP-62
CCRF-CEM = system: CCRF-CEM
HCT-15 = system: HCT-15
NCI-H23 = system: NCI-H23
SF-268 = system: SF-268
MCF7 = system: MCF7
SK-MEL-2 = system: SK-MEL-2
MDA-N = system: MDA-N
HOP-92 = system: HOP-92
NCI/ADR-RES = system: NCI/ADR-RES
T47D = system: T47D
Hs-578T = system: Hs-578T
COLO 205 = system: COLO 205
OVCAR-5 = system: OVCAR-5
DU-145 = system: DU-145
Malme-3M = system: Malme-3M
ACHN = system: ACHN
SR = system: SR
PC-3 = system: PC-3
SN12C = system: SN12C
A498 = system: A498
NCI-H522 = system: NCI-H522
OVCAR-8 = system: OVCAR-8
KM12 = system: KM12
UACC-257 = system: UACC-257
EKVX = system: EKVX
HT-29 = system: HT-29
HL-60 = system: HL-60
SK-OV-3 = system: SK-OV-3
HCT-116 = system: HCT-116
NCI-H460 = system: NCI-H460
NCI-H226 = system: NCI-H226
786-0 = system: 786-0
SNB-75 = system: SNB-75

For `CCOC(=O)c1nc2ccccc2n(CC)c1=O`, the GI50 (CAKI-1) was > 100 µM (inactive), the GI50 (OVCAR-4) was > 100 µM (inactive) and the GI50 (OVCAR-3) was > 100 µM (inactive). The GI50 (M14) was > 100 µM (inactive), the GI50 (SW-620) was > 100 µM (inactive) and the GI50 (MOLT-4) was > 100 µM (inactive). For the same compound, the GI50 (SF-295) was > 100 µM (inactive), the GI50 (UO-31) was > 100 µM (inactive) and the GI50 (HCC 2998) was > 100 µM (inactive). The GI50 (MDA-MB-435) was > 100 µM (inactive), the GI50 (UACC-62) was > 100 µM (inactive) and the GI50 (RPMI-8226) was > 100 µM (inactive). For the same compound, the GI50 (MDA-MB-231) was > 100 µM (inactive), the GI50 (BT-549) was > 100 µM (inactive) and the GI50 (SK-MEL-5) was > 100 µM (inactive). The GI50 (SNB-19) was > 100 µM (inactive), the GI50 (U-251) was > 100 µM (inactive) and the GI50 (A549) was > 100 µM (inactive). For the same compound, the GI50 (LOX IMVI) was > 100 µM (inactive), the GI50 (SK-MEL-28) was > 100 µM (inactive) and the GI50 (RXF 393) was > 100 µM (inactive). The GI50 (K562) was > 100 µM (inactive), the GI50 (TK-10) was > 100 µM (inactive) and the GI50 (IGROV-1) was > 100 µM (inactive). The GI50 (SF-539) was > 100 µM (inactive), the GI50 (HOP-62) was > 100 µM (inactive) and the GI50 (CCRF-CEM) was > 100 µM (inactive). For the same compound, the GI50 (HCT-15) was over 100 µM, the GI50 (NCI-H23) was > 100 µM (inactive) and the GI50 (SF-268) was > 100 µM (inactive). The GI50 (MCF7) was > 100 µM (inactive), the GI50 (SK-MEL-2) was > 100 µM (inactive) and the GI50 (MDA-N) was > 100 µM (inactive). The GI50 (HOP-92) was > 100 µM (inactive), the GI50 (NCI/ADR-RES) was > 100 µM (inactive) and the GI50 (T47D) was > 100 µM (inactive). For the same compound, the GI50 (Hs-578T) was > 100 µM (inactive), the GI50 (COLO 205) was > 100 µM (inactive) and the GI50 (OVCAR-5) was > 100 µM (inactive). The GI50 (DU-145) was > 100 µM (inactive), the GI50 (Malme-3M) was > 100 µM (inactive) and the GI50 (ACHN) was > 100 µM (inactive). The GI50 (SR) was > 100 µM (inactive), the GI50 (PC-3) was > 100 µM (inactive) and the GI50 (SN12C) was > 100 µM (inactive). For the same compound, the GI50 (A498) was > 100 µM (inactive), the GI50 (NCI-H522) was > 100 µM (inactive) and the GI50 (OVCAR-8) was > 100 µM (inactive). For the same compound, the GI50 (KM12) was > 100 µM (inactive), the GI50 (UACC-257) was > 100 µM (inactive) and the GI50 (EKVX) was > 100 µM (inactive). The GI50 (HT-29) was > 100 µM (inactive), the GI50 (HL-60) was > 100 µM (inactive) and the GI50 (SK-OV-3) was > 100 µM (inactive). For the same compound, the GI50 (HCT-116) was > 100 µM (inactive), the GI50 (NCI-H460) was 81.7 µM (inactive) and the GI50 (NCI-H226) was > 100 µM (inactive).
`CO/C=C(/C(=O)OC)c1ccccc1[C@@H]1CC1c1cccc(F)c1` (stereo partly specified) was tested, and the GI50 (CAKI-1) was 18.6 µM (inactive), the GI50 (OVCAR-4) was 20.2 µM (inactive) and the GI50 (OVCAR-3) was 27.6 µM (inactive). For the same compound, the GI50 (M14) was 19.8 µM (inactive), the GI50 (MOLT-4) was 29.2 µM (inactive) and the GI50 (SF-295) was 67 µM (inactive). The GI50 (UO-31) was 31.8 µM (inactive), the GI50 (HCC 2998) was 25 µM (inactive) and the GI50 (MDA-MB-435) was 19.3 µM (inactive). For the same compound, the GI50 (UACC-62) was 18.2 µM (inactive), the GI50 (RPMI-8226) was 19.5 µM (inactive) and the GI50 (MDA-MB-231) was 29.9 µM (inactive). For the same compound, the GI50 (BT-549) was 25.4 µM (inactive), the GI50 (SK-MEL-5) was 12.3 µM (inactive) and the GI50 (SNB-19) was 53.3 µM (inactive). The GI50 (U-251) was 30.5 µM (inactive), the GI50 (A549) was 20.6 µM (inactive) and the GI50 (SK-MEL-28) was 39.4 µM (inactive). The GI50 (RXF 393) was 58.3 µM (inactive), the GI50 (K562) was 44.2 µM (inactive) and the GI50 (TK-10) was 37.9 µM (inactive). The GI50 (IGROV-1) was 18.2 µM (inactive), the GI50 (SF-539) was 28.4 µM (inactive) and the GI50 (HOP-62) was 51.6 µM (inactive). The GI50 (CCRF-CEM) was 26.5 µM (inactive), the GI50 (HCT-15) was 23.4 µM and the GI50 (NCI-H23) was 24.5 µM (inactive). For the same compound, the GI50 (SF-268) was 37.5 µM (inactive), the GI50 (MCF7) was 43.6 µM (inactive) and the GI50 (786-0) was 41 µM (inactive). The GI50 (SK-MEL-2) was 16.9 µM (inactive), the GI50 (MDA-N) was 22.1 µM (inactive) and the GI50 (HOP-92) was 23.3 µM (inactive). The GI50 (NCI/ADR-RES) was 30.5 µM (inactive), the GI50 (T47D) was 20.4 µM (inactive) and the GI50 (Hs-578T) was 41.1 µM (inactive). The GI50 (COLO 205) was 15.7 µM (inactive), the GI50 (OVCAR-5) was > 100 µM (inactive) and the GI50 (DU-145) was 33 µM (inactive). The GI50 (Malme-3M) was 16 µM (inactive), the GI50 (ACHN) was 23.2 µM (inactive) and the GI50 (SR) was 21.2 µM (inactive). For the same compound, the GI50 (PC-3) was 29 µM (inactive), the GI50 (SN12C) was 29.6 µM (inactive) and the GI50 (A498) was 25.6 µM (inactive). For the same compound, the GI50 (NCI-H522) was 14.2 µM (inactive), the GI50 (OVCAR-8) was 33.5 µM (inactive) and the GI50 (KM12) was 24.7 µM (inactive). The GI50 (UACC-257) was 19.9 µM (inactive), the GI50 (EKVX) was 30.5 µM (inactive) and the GI50 (HT-29) was 30.4 µM (inactive). For the same compound, the GI50 (HL-60) was 18.4 µM (inactive), the GI50 (SK-OV-3) was 25.5 µM (inactive) and the GI50 (HCT-116) was 21.1 µM (inactive). The GI50 (NCI-H460) was 26.6 µM (inactive) and the GI50 (NCI-H226) was 25.6 µM (inactive).
With `O=C(O)CCCc1ccc2ccc3ccccc3c2c1` the GI50 (CAKI-1) was > 100 µM (inactive), the GI50 (OVCAR-4) was > 100 µM (inactive) and the GI50 (OVCAR-3) was 53.6 µM (inactive). The GI50 (M14) was > 100 µM (inactive), the GI50 (MOLT-4) was 65.5 µM (inactive) and the GI50 (SNB-75) was 14 µM (inactive). For the same compound, the GI50 (SF-295) was 21.8 µM (inactive), the GI50 (UO-31) was 88.1 µM (inactive) and the GI50 (MDA-MB-435) was > 100 µM (inactive). For the same compound, the GI50 (UACC-62) was 38.3 µM (inactive), the GI50 (RPMI-8226) was 38.8 µM (inactive) and the GI50 (MDA-MB-231) was 73.1 µM (inactive). For the same compound, the GI50 (BT-549) was 69 µM (inactive), the GI50 (SK-MEL-5) was 55.2 µM (inactive) and the GI50 (SNB-19) was > 100 µM (inactive). For the same compound, the GI50 (U-251) was 71.1 µM (inactive), the GI50 (A549) was 61 µM (inactive) and the GI50 (LOX IMVI) was 96.4 µM (inactive). The GI50 (SK-MEL-28) was 81.8 µM (inactive), the GI50 (RXF 393) was 15.3 µM (inactive) and the GI50 (K562) was 42.5 µM (inactive). The GI50 (TK-10) was 57.4 µM (inactive), the GI50 (IGROV-1) was > 100 µM (inactive) and the GI50 (HOP-62) was 34.8 µM (inactive). The GI50 (HCT-15) was 51.1 µM, the GI50 (NCI-H23) was > 100 µM (inactive) and the GI50 (SF-268) was 66.2 µM (inactive). For the same compound, the GI50 (MCF7) was > 100 µM (inactive), the GI50 (786-0) was > 100 µM (inactive) and the GI50 (SK-MEL-2) was 26.7 µM (inactive). The GI50 (MDA-N) was > 100 µM (inactive), the GI50 (HOP-92) was 72.6 µM (inactive) and the GI50 (NCI/ADR-RES) was 84.3 µM (inactive). For the same compound, the GI50 (T47D) was 52.8 µM (inactive), the GI50 (Hs-578T) was 38.8 µM (inactive) and the GI50 (COLO 205) was 40.8 µM (inactive). The GI50 (OVCAR-5) was 73.5 µM (inactive), the GI50 (DU-145) was > 100 µM (inactive) and the GI50 (Malme-3M) was 39.4 µM (inactive). The GI50 (ACHN) was 46.2 µM (inactive), the GI50 (SR) was 51.9 µM (inactive) and the GI50 (PC-3) was 34.8 µM (inactive). The GI50 (SN12C) was > 100 µM (inactive), the GI50 (A498) was 73.5 µM (inactive) and the GI50 (NCI-H522) was 39.6 µM (inactive). The GI50 (OVCAR-8) was 71.9 µM (inactive), the GI50 (KM12) was 35.6 µM (inactive) and the GI50 (UACC-257) was 56.2 µM (inactive). For the same compound, the GI50 (EKVX) was > 100 µM (inactive), the GI50 (HT-29) was 83.9 µM (inactive) and the GI50 (HCT-116) was 89.1 µM (inactive). The GI50 (NCI-H460) was 58.3 µM (inactive) and the GI50 (NCI-H226) was 78.2 µM (inactive).
